Experimental data: US20250352539A1, “COMBINATION THERAPY FOR TREATING CANCER” (AstraZeneca AB, priority 2022, published 2025)
Where “and” joins values, the source holds several entries; their conditions need not be identical. Equal values may be shown once. Read-outs that look alike come from different tables or passages of the source.

How the values were obtained:
Assay in all cases: 144-hour CellTiter-Glo 2.0 proliferation assay
Format in all cases: cell-based
BxPC-3 = conditions: monotherapy, read-out: mono GI50
Procedure: (§1) Combination profiling was carried out in a panel of cancer cell lines utilising Horizon Discovery's High Throughput Screening platform.
(§2) Cell lines that have been preserved in liquid nitrogen are thawed and expanded in growth media (see Table 1). Once cells have reached expected doubling times, screening begins. Cells are seeded in 25 μl of growth media in black 384-well tissue culture treated plates (seeding density as noted in Table 11).
(§3) Cells are equilibrated in assay plates via centrifugation and placed at 37° C. 5% CO2 for twenty-four hours before treatment.
(§4) Compounds are transferred to assay plates using and Echo acoustic liquid handling system. 25 nl of each compound was added at the appropriate concentration for all combination dose points. Therefore, final assay volume would be […]. Assay plates are incubated with compound for 6 days and are then analysed using CellTiter-Glo 2.0. All data points are collected via automated processes and are subject to quality control and analysed.
(§5) Growth Inhibition (GI) is reported as a measure of cell growth. The GI percentages are calculated by applying the following test and equation: […]
(§6) where T is the signal measure for a test article, V is the untreated/vehicle-treated control measure, and Vo is the untreated/vehicle control measure at time zero (also colloquially referred as T0 plates). This formula is derived from the Growth Inhibition calculation used in the National Cancer Institute's NCI-60 high throughput screen. For the purposes of this report, all data analysis was performed in Growth Inhibition (except where noted).

CFPAC-1 = conditions: Homo sapiens; CFPAC-1 pancreatic; monotherapy; read-out: mono GI50
Procedure: as §1, §2, §3, §4, §5, §6

COV362 = COV362 ovarian; monotherapy; read-out: mono GI50
Procedure: as §1, §2, §3, §4, §5, §6

Caov-3 = conditions: Homo sapiens; Caov-3 ovarian; monotherapy; read-out: mono GI50
Procedure: as §1, §2, §3, §4, §5, §6

GCIY = conditions: Homo sapiens; GCIY gastric; monotherapy; read-out: mono GI50
Procedure: as §1, §2, §3, §4, §5, §6

Gp2D = Gp2D colorectal; monotherapy; read-out: mono GI50
Procedure: as §1, §2, §3, §4, §5, §6

HGC-27 = conditions: Homo sapiens; HGC-27 gastric; monotherapy; read-out: mono GI50
Procedure: as §1, §2, §3, §4, §5, §6

HPAF-II = conditions: Homo sapiens; HPAF-II pancreatic; monotherapy; read-out: mono GI50
Procedure: as §1, §2, §3, §4, §5, §6

HT-115 = conditions: HT115; HT-115 colorectal; monotherapy; read-out: mono GI50
Procedure: as §1, §2, §3, §4, §5, §6

KE-39 = KE-39 gastric; monotherapy; read-out: mono GI50
Procedure: as §1, §2, §3, §4, §5, §6

KP-3 = KP-3 pancreatic; monotherapy; read-out: mono GI50
Procedure: as §1, §2, §3, §4, §5, §6

KURAMOCHI = KURAMOCHI ovarian; monotherapy; read-out: mono GI50
Procedure: as §1, §2, §3, §4, §5, §6

LMSU = LMSU gastric; monotherapy; read-out: mono GI50
Procedure: as §1, §2, §3, §4, §5, §6

LS-513 = conditions: Homo sapiens; LS-513 colorectal; monotherapy; read-out: mono GI50
Procedure: as §1, §2, §3, §4, §5, §6

LoVo = conditions: Homo sapiens; LoVo colorectal; monotherapy; read-out: mono GI50
Procedure: as §1, §2, §3, §4, §5, §6

MIA PaCa-2 = conditions: monotherapy, read-out: mono GI50
Procedure: as §1, §2, §3, §4, §5, §6

MKN74 = conditions: Homo sapiens, MKN-74; MKN74 gastric; monotherapy; read-out: mono GI50
Procedure: as §1, §2, §3, §4, §5, §6

NCI-SNU-1 = NCI-SNU-1 gastric; monotherapy; read-out: mono GI50
Procedure: as §1, §2, §3, §4, §5, §6

OV7 = OV7 ovarian; monotherapy; read-out: mono GI50
Procedure: as §1, §2, §3, §4, §5, §6

OVCAR-3 = conditions: Homo sapiens; OVCAR-3 ovarian; monotherapy; read-out: mono GI50
Procedure: as §1, §2, §3, §4, §5, §6

OVK18 = OVK18 ovarian; monotherapy; read-out: mono GI50
Procedure: as §1, §2, §3, §4, §5, §6

OVSAHO = conditions: Homo sapiens; OVSAHO ovarian; monotherapy; read-out: mono GI50
Procedure: as §1, §2, §3, §4, §5, §6

PSN1 = conditions: monotherapy, read-out: mono GI50
Procedure: as §1, §2, §3, §4, §5, §6

RKO = conditions: Homo sapiens; RKO colorectal; monotherapy; read-out: mono GI50
Procedure: as §1, §2, §3, §4, §5, §6

SK-OV-3 = conditions: Homo sapiens; SK-OV-3 ovarian; monotherapy; read-out: mono GI50
Procedure: as §1, §2, §3, §4, §5, §6

SNU-668 = conditions: SNU668; SNU-668 gastric; monotherapy; read-out: mono GI50
Procedure: as §1, §2, §3, §4, §5, §6

SW620 = conditions: Homo sapiens, SW-620; SW620 colorectal; monotherapy; read-out: mono GI50
Procedure: as §1, §2, §3, §4, §5, §6

SW837 = conditions: Homo sapiens; SW837 colorectal; monotherapy; read-out: mono GI50
Procedure: as §1, §2, §3, §4, §5, §6

TOV-21G = conditions: Homo sapiens, TOV21G; TOV-21G ovarian; monotherapy; read-out: mono GI50
Procedure: as §1, §2, §3, §4, §5, §6

## C[C@@H]1COCCN1c1cc(C2([S@](C)(=N)=O)CC2)nc(-c2ccnc3[nH]ccc23)n1 [AZD6738, 4-{4-[(3R)-3-Methylmorpholin-4-yl]-6-[1-((R)—S-methylsulfonimidoyl)cyclopropyl]pyrimidin-2-yl}-1H-pyrrolo[2,3-b]-pyridine]
BxPC-3; BxPC-3 pancreatic
  GI50: 1090 nM
BxPC-3; Homo sapiens, BXPC-3, BxPC-3 pancreatic
  GI50: 1080 nM
CFPAC-1
  GI50: 757 nM
COV362
  GI50: 1060 nM
Caov-3
  GI50: 197 nM
GCIY
  GI50: 179 nM
Gp2D
  GI50: 501 nM
HGC-27
  GI50: 1150 nM
HPAF-II
  GI50: 1030 nM
HT-115
  GI50: 1610 nM
KE-39
  GI50: 1470 nM
KP-3
  GI50: 1280 nM and 1900 nM
KURAMOCHI
  GI50: 728 nM
LMSU
  GI50: 1710 nM
LS-513
  GI50: 645 nM
LoVo
  GI50: 401 nM
MIA PaCa-2; Homo sapiens, MIA PaCa-2, MIA PaCa-2 pancreatic
  GI50: 1200 nM
MIA PaCa-2; MIA PaCa-2 pancreatic
  GI50: 1930 nM
MKN74
  GI50: 741 nM
NCI-SNU-1
  GI50: 1090 nM
OV7
  GI50: 1920 nM
OVCAR-3
  GI50: 370 nM
OVK18
  GI50: 921 nM
OVSAHO
  GI50: 581 nM
PSN1; Homo sapiens, PSN1, PSN1 pancreatic
  GI50: 858 nM
PSN1; PSN1 pancreatic
  GI50: 746 nM
RKO
  GI50: 1020 nM
SK-OV-3
  GI50: 1280 nM
SNU-668
  GI50: 291 nM
SW620
  GI50: 853 nM
SW837
  GI50: 924 nM
TOV-21G
  GI50: 374 nM
